Assay results published in ChEMBL document CHEMBL1201862, “PubChem BioAssay data set” (2004).
Active and inactive are the calls of the source.

Legend:
[1] = target: T1, Cytochrome P450 1A2 (Homo sapiens, UniProt P05177);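 note: PubChem cytochrome P450 panel assay, CYP1A2 panel member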
T1 sequence (P05177 whole entry): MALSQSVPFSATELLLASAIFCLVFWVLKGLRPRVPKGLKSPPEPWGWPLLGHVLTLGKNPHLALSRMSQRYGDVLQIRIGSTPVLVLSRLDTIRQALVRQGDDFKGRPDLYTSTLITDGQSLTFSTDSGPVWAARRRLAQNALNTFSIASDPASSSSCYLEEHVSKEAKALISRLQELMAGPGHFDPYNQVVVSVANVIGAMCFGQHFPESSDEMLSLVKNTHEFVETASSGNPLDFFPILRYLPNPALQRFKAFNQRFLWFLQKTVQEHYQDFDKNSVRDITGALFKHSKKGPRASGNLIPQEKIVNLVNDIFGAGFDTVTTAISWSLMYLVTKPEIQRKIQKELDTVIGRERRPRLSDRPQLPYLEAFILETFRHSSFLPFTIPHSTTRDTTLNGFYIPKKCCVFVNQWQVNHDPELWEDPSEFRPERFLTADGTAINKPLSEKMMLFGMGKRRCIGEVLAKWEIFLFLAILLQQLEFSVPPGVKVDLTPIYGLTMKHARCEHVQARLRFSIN

[2] = target: T2, Apoptotic protease-activating factor 1 (Homo sapiens, UniProt O14727); assay type: functional
T2 sequence (O14727 whole entry): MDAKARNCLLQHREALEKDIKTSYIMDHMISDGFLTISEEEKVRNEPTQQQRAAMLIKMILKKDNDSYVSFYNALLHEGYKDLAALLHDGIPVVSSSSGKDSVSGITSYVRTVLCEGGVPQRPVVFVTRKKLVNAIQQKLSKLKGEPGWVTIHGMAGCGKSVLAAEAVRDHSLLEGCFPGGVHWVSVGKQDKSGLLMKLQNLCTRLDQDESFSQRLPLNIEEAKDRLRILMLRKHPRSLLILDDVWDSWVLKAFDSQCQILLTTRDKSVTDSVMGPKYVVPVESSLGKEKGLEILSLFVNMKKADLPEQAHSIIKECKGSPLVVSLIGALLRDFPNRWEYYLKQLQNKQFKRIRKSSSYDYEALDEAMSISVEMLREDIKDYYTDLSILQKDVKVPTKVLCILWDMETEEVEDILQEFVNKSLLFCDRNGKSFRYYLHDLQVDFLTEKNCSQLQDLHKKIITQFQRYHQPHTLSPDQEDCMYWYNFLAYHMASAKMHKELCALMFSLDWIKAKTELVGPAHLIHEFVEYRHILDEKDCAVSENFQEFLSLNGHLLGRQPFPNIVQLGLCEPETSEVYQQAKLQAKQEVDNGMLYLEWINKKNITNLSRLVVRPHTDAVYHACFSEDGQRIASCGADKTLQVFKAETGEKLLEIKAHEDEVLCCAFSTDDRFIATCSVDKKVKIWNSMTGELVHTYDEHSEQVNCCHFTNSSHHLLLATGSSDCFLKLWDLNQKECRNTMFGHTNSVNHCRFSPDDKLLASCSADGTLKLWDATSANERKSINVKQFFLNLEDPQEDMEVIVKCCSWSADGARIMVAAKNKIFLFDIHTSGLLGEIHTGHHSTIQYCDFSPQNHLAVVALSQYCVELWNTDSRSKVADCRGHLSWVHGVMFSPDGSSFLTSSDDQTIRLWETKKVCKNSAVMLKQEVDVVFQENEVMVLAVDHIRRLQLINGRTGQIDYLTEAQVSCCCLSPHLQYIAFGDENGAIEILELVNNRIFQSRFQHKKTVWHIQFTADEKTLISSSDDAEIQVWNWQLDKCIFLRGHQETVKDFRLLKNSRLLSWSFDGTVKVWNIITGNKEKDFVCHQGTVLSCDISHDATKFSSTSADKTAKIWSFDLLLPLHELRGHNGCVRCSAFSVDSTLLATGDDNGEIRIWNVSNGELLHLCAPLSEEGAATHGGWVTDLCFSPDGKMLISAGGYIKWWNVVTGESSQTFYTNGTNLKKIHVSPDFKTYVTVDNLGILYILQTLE

[3] = target: Cytochrome P450 3A4 (Homo sapiens, UniProt P08684);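 note: CYP3A4 tested as one member of a cytochrome P450 panel screen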
[4] = target: Estrogen receptor beta (Homo sapiens, UniProt Q92731);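 note: recombinant ER-beta bound to coactivator SRC1 peptide in presence of estradiol agonist; inhibitors block coactivator peptide binding and lower the FRET signal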
[5] = cytotoxicity in HEK-293T cells, dose response, cytotoxicity control for BCR NF-kB inhibitor project, luminescence, B-cell screen hits (AID 489021); assay type: functional, cell-based;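 note: HEK-293T cells carrying an NF-kB luciferase reporter; cells exposed to compound for about 14 hours before viability readout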
[6] = Luminescence Cell-Based Dose Response HTS to Identify Activators of Luciferase Translation or Activity in H4 […] Cells. [Related pubchem assays: 1829 (Project Summary), 1814 (Primary HTS)]; assay type: functional
[7] = tested on: H4; assay: Luminescence Cell-Based Dose Response HTS to Identify Activators of 5'UTR Stem-Loop Driven Prion Protein mRNA Translation in H4 Neuroglioblastoma Cells. [Related pubchem assays: 1829 (Project Summary), 1814 (Primary HTS)]; assay type: functional; details: Homo sapiens
[8] = target: Induced myeloid leukemia cell differentiation protein Mcl-1 (Homo sapiens, UniProt Q07820); assay type: functional
[9] = Luminescence Cell-Based Dose Confirmation HTS to Identify Activators of 5'UTR Stem-Loop Driven Alpha-Synuclein mRNA Translation in H4 Neuroglioblastoma Cells. [Related pubchem assays: 1829 (Project Summary), 1814 (Primary HTS)]; assay type: functional
[10] = inhibitors of intracellular T. cruzi replication, confirmation, NIH3T3 host cells, beta-gal luminescence (AID 2044); assay type: functional, cell-based;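 note: intracellular parasites grown in NIH/3T3 mouse fibroblasts as host cells; luminescent beta-galactosidase reporter signal from transgenic T. cruzi replicating inside host cells; inhibitors lower the luminescence signal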
[11] = cytotoxicity toward NIH3T3 fibroblasts, dose response, counter-screen, cell-based, ATP luminescence, mouse fibroblasts (AID 2010); assay type: functional;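 note: cells exposed to compound for about 90 hours before reading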
[12] = tested on: Streptococcus; assay: Group A Streptococcus viability loss, dose response, counter-screen for streptokinase expression inhibitor project, luminescence, BacTiterGlo (AID 1915); assay type: functional, organism-based;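 note: potency for reduction of bacterial viability or growth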
[13] = tested on: Streptococcus sp. 'group A'; assay: growth inhibition of control SK(-) GAS strain, dose response, counter-screen for streptokinase expression inhibitor project, luminescence, kanamycin, BacTiterGlo, confirmation (AID 1900); assay type: functional, organism-based
[14] = target: T3, Streptokinase A (Streptococcus pyogenes serotype M1, UniProt P10520); assay: S. pyogenes streptokinase expression inhibitors, potency, dose response, plasminogen activation absorbance, OD405 (AID 1914); assay type: functional, Streptococcus pyogenes M1 GAS;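 note: secreted streptokinase activity via plasminogen activation per viability signal from cell pellet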
T3 sequence (P10520 whole entry): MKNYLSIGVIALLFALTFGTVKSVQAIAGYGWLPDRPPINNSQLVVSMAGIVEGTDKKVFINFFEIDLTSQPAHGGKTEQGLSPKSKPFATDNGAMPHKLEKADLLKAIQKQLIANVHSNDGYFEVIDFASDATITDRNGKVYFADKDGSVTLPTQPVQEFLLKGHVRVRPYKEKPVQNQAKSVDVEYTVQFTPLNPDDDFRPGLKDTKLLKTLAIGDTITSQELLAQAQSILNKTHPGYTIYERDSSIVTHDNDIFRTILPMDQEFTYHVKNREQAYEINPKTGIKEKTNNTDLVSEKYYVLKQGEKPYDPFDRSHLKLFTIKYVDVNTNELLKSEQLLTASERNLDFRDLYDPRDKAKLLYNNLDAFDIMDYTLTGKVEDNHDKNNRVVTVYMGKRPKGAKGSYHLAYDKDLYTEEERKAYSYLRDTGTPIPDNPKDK

[15] = target: T4, Histone-lysine N-methyltransferase NSD2 (Homo sapiens, UniProt O96028); assay type: biochemical
T4 sequence (O96028 whole entry): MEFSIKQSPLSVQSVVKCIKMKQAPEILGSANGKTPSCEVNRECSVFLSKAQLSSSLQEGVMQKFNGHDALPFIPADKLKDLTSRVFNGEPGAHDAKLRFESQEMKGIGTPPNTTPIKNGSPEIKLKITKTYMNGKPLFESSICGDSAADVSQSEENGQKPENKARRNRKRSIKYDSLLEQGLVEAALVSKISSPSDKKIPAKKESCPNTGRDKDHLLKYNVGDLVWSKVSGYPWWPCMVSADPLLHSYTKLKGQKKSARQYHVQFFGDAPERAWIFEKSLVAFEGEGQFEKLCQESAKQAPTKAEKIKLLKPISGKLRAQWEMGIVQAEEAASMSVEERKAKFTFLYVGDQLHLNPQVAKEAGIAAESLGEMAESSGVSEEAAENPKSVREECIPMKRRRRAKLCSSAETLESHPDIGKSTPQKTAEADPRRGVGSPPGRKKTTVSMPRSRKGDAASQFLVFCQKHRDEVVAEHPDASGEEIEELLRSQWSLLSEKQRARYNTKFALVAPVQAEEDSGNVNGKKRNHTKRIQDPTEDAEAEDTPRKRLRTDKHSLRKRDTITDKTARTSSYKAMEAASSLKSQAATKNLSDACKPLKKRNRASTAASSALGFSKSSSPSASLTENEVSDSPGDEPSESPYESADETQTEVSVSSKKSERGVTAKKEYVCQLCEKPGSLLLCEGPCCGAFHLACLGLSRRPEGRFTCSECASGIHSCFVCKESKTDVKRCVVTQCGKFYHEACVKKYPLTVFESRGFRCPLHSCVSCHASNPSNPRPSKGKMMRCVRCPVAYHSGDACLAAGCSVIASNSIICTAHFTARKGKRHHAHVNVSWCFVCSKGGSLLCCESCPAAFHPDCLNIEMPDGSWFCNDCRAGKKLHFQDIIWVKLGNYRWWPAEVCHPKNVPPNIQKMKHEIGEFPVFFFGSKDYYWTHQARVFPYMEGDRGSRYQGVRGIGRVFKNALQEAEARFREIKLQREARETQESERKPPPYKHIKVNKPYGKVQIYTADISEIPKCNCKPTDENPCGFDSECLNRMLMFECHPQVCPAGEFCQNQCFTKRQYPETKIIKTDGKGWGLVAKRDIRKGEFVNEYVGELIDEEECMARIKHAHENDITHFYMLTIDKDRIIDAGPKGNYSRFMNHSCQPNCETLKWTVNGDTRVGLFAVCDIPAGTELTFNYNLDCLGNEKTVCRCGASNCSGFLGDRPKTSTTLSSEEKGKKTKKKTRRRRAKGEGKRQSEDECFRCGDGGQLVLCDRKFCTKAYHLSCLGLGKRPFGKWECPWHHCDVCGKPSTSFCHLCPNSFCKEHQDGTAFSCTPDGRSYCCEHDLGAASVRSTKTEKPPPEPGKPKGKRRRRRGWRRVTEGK

[16] = target: FAD-linked sulfhydryl oxidase ALR (Homo sapiens, UniProt P55789); assay: inhibitors of human ALR sulfhydryl oxidase, dose response, biochemical, H2O2 detection, luminescence, cherry-pick (AID 493248)
Chain of FAD-linked sulfhydryl oxidase ALR (P55789 whole entry): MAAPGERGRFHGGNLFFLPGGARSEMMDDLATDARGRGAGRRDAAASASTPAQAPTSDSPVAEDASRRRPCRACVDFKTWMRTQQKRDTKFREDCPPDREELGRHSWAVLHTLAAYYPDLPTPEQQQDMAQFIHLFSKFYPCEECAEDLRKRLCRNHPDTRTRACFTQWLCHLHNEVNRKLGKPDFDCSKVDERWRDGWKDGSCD

Chain of Estrogen receptor beta (Q92731 whole entry): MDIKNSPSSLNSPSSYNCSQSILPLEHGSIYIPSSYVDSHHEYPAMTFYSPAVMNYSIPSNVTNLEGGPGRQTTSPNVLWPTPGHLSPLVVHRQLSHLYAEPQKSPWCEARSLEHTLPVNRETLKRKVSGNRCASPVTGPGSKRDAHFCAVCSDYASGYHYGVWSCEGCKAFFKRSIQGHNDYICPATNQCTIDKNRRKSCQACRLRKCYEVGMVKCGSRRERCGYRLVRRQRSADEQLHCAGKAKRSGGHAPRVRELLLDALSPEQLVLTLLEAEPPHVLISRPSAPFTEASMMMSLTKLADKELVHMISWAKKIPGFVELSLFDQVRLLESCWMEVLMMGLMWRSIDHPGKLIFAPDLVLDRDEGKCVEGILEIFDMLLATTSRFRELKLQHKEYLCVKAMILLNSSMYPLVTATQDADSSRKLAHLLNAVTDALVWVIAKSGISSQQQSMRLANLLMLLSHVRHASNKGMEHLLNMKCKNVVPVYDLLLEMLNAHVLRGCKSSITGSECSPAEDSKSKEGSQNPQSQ
Chain of Induced myeloid leukemia cell differentiation protein Mcl-1 (Q07820 whole entry): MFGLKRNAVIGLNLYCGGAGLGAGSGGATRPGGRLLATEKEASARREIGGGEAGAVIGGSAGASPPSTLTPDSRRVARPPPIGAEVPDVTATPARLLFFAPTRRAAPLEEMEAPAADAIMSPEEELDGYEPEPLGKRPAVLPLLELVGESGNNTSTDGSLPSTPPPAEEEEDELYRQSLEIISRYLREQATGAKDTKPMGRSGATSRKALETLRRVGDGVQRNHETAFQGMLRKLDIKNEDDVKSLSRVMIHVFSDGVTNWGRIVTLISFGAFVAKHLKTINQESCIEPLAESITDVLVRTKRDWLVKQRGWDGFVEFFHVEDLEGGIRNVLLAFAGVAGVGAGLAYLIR
Chain of Cytochrome P450 3A4 (P08684 whole entry): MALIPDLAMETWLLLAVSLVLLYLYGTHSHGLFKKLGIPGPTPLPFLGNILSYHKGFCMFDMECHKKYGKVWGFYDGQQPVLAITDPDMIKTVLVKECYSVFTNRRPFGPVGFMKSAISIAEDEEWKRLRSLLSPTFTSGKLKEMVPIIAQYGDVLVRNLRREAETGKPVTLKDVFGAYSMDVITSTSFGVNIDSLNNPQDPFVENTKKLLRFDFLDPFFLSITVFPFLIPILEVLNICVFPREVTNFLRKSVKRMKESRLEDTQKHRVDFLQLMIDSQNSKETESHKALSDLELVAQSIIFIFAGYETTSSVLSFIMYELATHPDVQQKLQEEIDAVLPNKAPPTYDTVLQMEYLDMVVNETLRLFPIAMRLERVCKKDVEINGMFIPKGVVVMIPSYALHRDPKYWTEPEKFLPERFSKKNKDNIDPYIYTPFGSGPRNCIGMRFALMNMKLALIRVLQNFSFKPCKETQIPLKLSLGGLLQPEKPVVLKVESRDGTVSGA

COC(=O)c1ccccc1-c1ccc(/C=C2\C(=O)N(c3ccccc3)N=C2c2ccccc2)o1
AC50 [1]: 5.01 µM (inconclusive) | IC50 [2]: 28.9 µM (active) | AC50 [3]: 2.82 µM (inconclusive)

CC(=O)Nc1ccc(N2CCN(C(C)=O)CC2)cc1
IC50 [4]: > 50 µM (not active)

CCN(CC(=O)Nc1c(F)cccc1F)C(=O)c1cc(S(=O)(=O)N2CCOCC2)ccc1N1CCCC1
IC50 [5]: > 80 µM (inactive)

Cc1ccc2nc(-c3ccc(NC(=O)CN4CCN(c5ccccn5)CC4)cc3)sc2c1
EC50 [6]: 9.19 µM (active) | EC50 [7]: 44.3 µM (active)

Brc1ccc(C2Nc3cccc4cccc(c34)N2)s1
IC50 [8]: 9.46 µM (active)

Nc1nc(CSc2ncccn2)nc(Nc2ccccc2)n1
EC50 [6]: 0.504 µM (active) | EC50 [9]: 3.07 µM (active)

COC(=O)c1ccc(CC(=O)c2c(C)cc(O)cc2O)o1
IC50 [4]: 15 µM (active)

COc1ccc(/C=C/c2ccccc2)cc1[C@H]1[C@H]2C=CC[C@@H](C)[C@@H]2C(=O)N1Cc1ccccc1
IC50 [5]: > 80 µM (inactive)

CCCCCc1ccc(OCCC[n+]2ccccc2)c(CCCCC)c1
EC50 [10]: 0.122 µM (active) | IC50 [2]: 84.9 µM (active) | EC50 [11]: > 60 µM (not active)

CC(=O)Oc1ccc2occ(-c3ccccc3)c2c1
EC50 [6]: 16.7 µM (active) | EC50 [9]: 13.8 µM (active) | EC50 [7]: 14 µM (active)

O=C(COc1ccccc1Cl)c1ccc2c(c1)CCCC2
EC50 [6]: 16.7 µM (active) | EC50 [7]: 10 µM (active)

CCOC(=O)C(=O)N(Nc1ccc(C)cc1)c1ccc(C)cc1
EC50 [6]: 82.6 µM (active) | EC50 [9]: 7.04 µM (active)

CC1CCN(c2ccc(-c3ccc(NC(=O)c4ccco4)cc3)nn2)CC1
EC50 [6]: > 120 µM (not active) | EC50 [12]: > 150 µM (not active) | EC50 [13]: > 150 µM (not active) | EC50 [9]: 18.6 µM (active) | EC50 [14]: > 150 µM (not active) | EC50 [7]: 120 µM (active)

COc1ccc(S(=O)(=O)N2CCN(CC(=O)c3ccc(O)c(O)c3)CC2)cc1
AC50 [15]: 5.33 µM (active) | AC50 [16]: 2.33 µM (active)

COc1ccc(C2=NCc3nnc(C)n3-c3ccc(Cl)cc32)cc1Cl
IC50 [5]: > 80 µM (inactive)

COc1ccc(C(=O)N/N=C/c2sc(N3CCOCC3)nc2-c2ccccc2)cc1OC
IC50 [5]: 63.1 µM (inactive)

COc1cc(/C=N/NC(=O)c2cc(-c3ccco3)nc3ccccc23)cc(OC)c1O
IC50 [8]: 8.35 µM (active) | AC50 [16]: 0.13 µM (active)

CCCc1cc(=O)oc2c3c(c4c(c12)OC(C)(C)C=C4)O[C@H](C)[C@@H](C)[C@@H]3O [CALANOLIDE A]
EC50 [10]: 2.28 µM (active) | IC50 [2]: 20.3 µM (active) | EC50 [11]: 4.87 µM (active)
